Literature values in article PMC13517605, “In Vitro Three-Dimensional Human Liver Model for Drug-Induced Liver and Bile Duct Injury Prediction” (Toxics, 2026).

Conditions: maximum plasma concentration in humans

[H]/N=C(/N)N[C@H]1[C@H](O)[C@@H](O)[C@H](O[C@@H]2O[C@@H](C)[C@](O)(C=O)[C@H]2O[C@@H]2O[C@@H](CO)[C@H](O)[C@@H](O)[C@@H]2NC)[C@@H](N/C(N)=N\[H])[C@@H]1O [Streptomycin, streptomycin]
Cmax: 52.3 µM
